Measured values reported in patent publication US6875774B2, “Aza-bridged bicyclic amine derivatives for use as novel cholinergic receptor ligands” (The University of North Carolina, priority 2002, dated 2005).
Structures can show the parent of a compound that is named as a salt. Where two headings read alike, the source gives them in different places.

Key:
[1] = molecular target: T1, human M1 receptor (Homo sapiens, UniProt P11229); test: biochemical; assay type: binding
T1 construct: made in house; host or cells: Sf9 insect cells (baculovirus)
T1 sequence (P11229 1-460): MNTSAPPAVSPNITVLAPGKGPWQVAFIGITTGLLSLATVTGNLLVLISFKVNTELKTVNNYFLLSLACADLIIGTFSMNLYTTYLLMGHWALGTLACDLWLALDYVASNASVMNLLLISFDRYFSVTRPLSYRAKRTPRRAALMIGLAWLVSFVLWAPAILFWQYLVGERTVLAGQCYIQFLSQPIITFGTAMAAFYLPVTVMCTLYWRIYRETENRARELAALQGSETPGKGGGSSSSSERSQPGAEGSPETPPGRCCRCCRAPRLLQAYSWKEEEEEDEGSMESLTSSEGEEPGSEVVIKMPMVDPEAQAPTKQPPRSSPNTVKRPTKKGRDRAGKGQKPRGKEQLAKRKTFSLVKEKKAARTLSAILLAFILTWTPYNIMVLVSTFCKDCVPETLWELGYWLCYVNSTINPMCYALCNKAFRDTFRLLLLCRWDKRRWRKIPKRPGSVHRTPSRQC

[2] = molecular target: T2, human M2 receptor (Homo sapiens, UniProt P08172); test: Muscarinic M2 competition binding assay ([3H]QNB, Sf9 membranes)
T2 construct: made in house; host or cells: Sf9 insect cells (baculovirus)
T2 sequence (P08172 1-466): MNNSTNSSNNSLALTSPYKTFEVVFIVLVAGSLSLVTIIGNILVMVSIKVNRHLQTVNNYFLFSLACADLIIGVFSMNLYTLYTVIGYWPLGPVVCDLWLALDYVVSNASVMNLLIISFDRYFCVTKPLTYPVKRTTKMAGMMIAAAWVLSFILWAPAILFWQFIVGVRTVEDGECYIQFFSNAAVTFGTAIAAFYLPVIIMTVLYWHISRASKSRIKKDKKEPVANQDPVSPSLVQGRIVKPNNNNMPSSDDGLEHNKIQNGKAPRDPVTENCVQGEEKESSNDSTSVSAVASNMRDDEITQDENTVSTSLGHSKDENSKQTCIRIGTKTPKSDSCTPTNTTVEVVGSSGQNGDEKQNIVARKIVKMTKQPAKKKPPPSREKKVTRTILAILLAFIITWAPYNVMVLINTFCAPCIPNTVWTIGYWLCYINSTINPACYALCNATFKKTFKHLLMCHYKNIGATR

[3] = molecular target: T1, human M1 receptor; test: Functional assay of M1 muscarinic receptors ([3H]inositol phosphate accumulation in Sf9 cells); assay type: cell-based; conditions: 100 μM carbachol with increasing amounts of compound (FIG. 3)
Protocol: A functional assay of M1 muscarinic receptors was performed. M1 receptor activity was determined by measuring activation of the Gαq effector, phospholipase C-β. Recombinant human M1 receptor was expressed (48 h) from a baculovirus in Sf9 insect cells. The inositol lipid pool of cells was radiolabeled by incubating the cells overnight in inositol-free Grace's medium containing 1 μCi of myo-[^3H]inositol. The medium was supplemented with 50 mM HEPES, pH 7.4, and 10 mM LiCl (final concentration) and placed in a 27° C. bath for 10 min prior to assay. The assay was initiated by addition of the appropriate ligand(s) and incubations continued for 20 min. The assay was terminated by aspirating the medium and adding 750 μL of ice-cold 50 mM formic acid. After 30 min at 4° C., the samples were neutralized with 250 μL of 150 mM NH4OH. [^3H]Inositol phosphates were isolated by ion exchange chromatography on Dowex AG 1-X8 columns and quantitated by liquid scintillation counting. […] The data shown in FIG. 3 are the results of an experiment performed in triplicate.

Question: `CCOC(=O)C1=C(O)C2CCC(CN(C)C)N(C1)C2` (stereo not drawn) [Compound 8, endo-8-Dimethylaminomethyl-3-ethoxycarbonyl-4-hydroxy-1-azabicyclo[3.3.1]non-3-ene] was tested. Which Ki ([1]; read-out: hM1 receptor Ki) did it give?
Answer: Its Ki is 12.4 ± 3.74 µM.

Question: What about the Ki ([2]; read-out: hM2 receptor Ki) of the same molecule?
Answer: The Ki was 47.6 ± 14.8 µM.

Question: `CCOC(=O)C1=C(O)[C@H]2CC[C@H](COCc3ccccc3)N(C1)C2` (relative stereo) [Compound 5, exo-8-Benzyloxymethyl-3-ethoxycarbonyl-4-hydroxy-1-azabicyclo[3.3.1]non-3-ene] was tested. Which Ki ([1]; read-out: hM1 receptor Ki) did it give?
Answer: Its Ki is 0.203 ± 0.083 µM.

Question: What about the “functional activity at muscarinic receptor” value [3] of the same molecule?
Answer: The value was “muscarinic receptor antagonist”.

Question: What about the Ki ([2]; read-out: hM2 receptor Ki) of the same molecule?
Answer: Its Ki is 0.0843 ± 0.0081 µM.

Question: And the “Ki fold greater than atropine at the human M2 receptor” value ([2]; relative to atropine)?
Answer: The value was 14 fold.

Question: With `CCOC(=O)C1=C(O)C2CCC(CN(C)C)N(C1)C2` (stereo not drawn) [Compound 7, exo-8-Dimethylaminomethyl-3-ethoxycarbonyl-4-hydroxy-1-azabicyclo[3.3.1]non-3-ene] as the molecule, how does the Ki ([1]; read-out: hM1 receptor Ki) read?
Answer: Its Ki is 16.8 ± 15.2 µM.

Question: What about the Ki ([2]; read-out: hM2 receptor Ki) of the same molecule?
Answer: Its Ki is 23.9 ± 13.7 µM.

Question: `CN(C)CC1CCC2CN1CCC2=O` (stereo not drawn) [Compound 13, endo-8-Dimethylaminomethyl-1-azabicyclo[3.3.1]nonan-4-one-HCl] was tested. Which Ki ([1]; read-out: hM1 receptor Ki) did it give?
Answer: The Ki was greater than 100 µM.

Question: What about the Ki ([2]; read-out: hM2 receptor Ki) of the same molecule?
Answer: The Ki was greater than 100 µM.

Question: For `O=C1CCN2CCCC1C2` (stereo not drawn) [Compound 9, 1-Azabicyclo[3.3.1]nonan-4-one], which Ki ([1]; hM1 receptor Ki) is on record?
Answer: Its Ki is greater than 100 µM.

Question: And the Ki ([2]; hM2 receptor Ki)?
Answer: Its Ki is greater than 100 µM.

Question: `CCOC(=O)C1=C(O)C2CCCN(C1)C2` (stereo not drawn) [Compound 4, 3-Ethoxycarbonyl-4-hydroxy-1-azabicyclo[3.3.1]non-3-ene] was tested. Which Ki ([1]; hM1 receptor Ki) did it give?
Answer: Its Ki is 1.01 ± 0.068 µM.

Question: What about the Ki ([2]; hM2 receptor Ki) of the same molecule?
Answer: Its Ki is 2.85 ± 0.179 µM.

Question: What does the source list for `CCOC(=O)C1=C(O)[C@H]2CC[C@@H](COCc3ccccc3)N(C1)C2` (relative stereo) [Compound 6, endo-8-Benzyloxymethyl-3-ethoxycarbonyl-4-hydroxy-1-azabicyclo[3.3.1]non-3-ene]?
Answer: Ki ([1]; read-out: hM1 receptor Ki): 10.3 ± 2.38 µM; Ki ([2]; read-out: hM2 receptor Ki): 7.35 ± 1.09 µM

Question: `CN(C)CC1CCC2CN1CCC2=O` (stereo not drawn) [Compound 12, exo-8-Dimethylaminomethyl-1-azabicyclo[3.3.1]nonan-4-one-HCl] was tested. Which Ki ([1]; hM1 receptor Ki) did it give?
Answer: The Ki was greater than 100 µM.

Question: What about the Ki ([2]; hM2 receptor Ki) of the same molecule?
Answer: Its Ki is greater than 100 µM.
